Results from patent EP0603240B1, “SAFENING HERBICIDAL PYRAZOLYLSULFONYLUREAS” (priority 1991, dated 1993).

Key:
Test in all cases: Example 24, Procedure II: Herbicide No. 1 + co-herbicides Nos. 4, 6, 7, 12 with Antidote Nos. 15 and 17-21
Format in all cases: in vivo
[1] = tested on: Giant foxtail (Setaria fabergi)
Experimental: (§1) Containers were filled and compacted with a fumigated silt loam top soil to a depth of about 1.3 cm from the top of the container. A first container was designated as an untreated control, a second container was designated as a herbicide control, and a third container was designated as a herbicide + antidote test container. Each of the containers was seeded with a crop species. A measured amount of herbicide dispersed or dissolved in acetone was applied to a measured quantity of soil. To this same quantity of soil treated with herbicide, there was added a measured amount of antidote dispersed or dissolved in acetone. The quantity of soil treated with the herbicide and antidote was thoroughly mixed to incorporate the herbicide and antidote in the soil uniformly. The seed bed in the third container of soil was covered with the soil treated with the herbicide and antidote and the container was leveled. For each test series, the seed beds of the first and second containers were likewise covered by soil layers. the cover layer of the first container was not treated with herbicide or antidote.
(§2) The containers were then placed on a bench in a greenhouse and sub-irrigated as required for the duration of the test. […] Plant response is measured in terms of percent injury. Antidote efficacy is indicated as the difference in plant injury by the herbicide(s) without the antidote and with the antidote.
(§3) This procedure is the same as Procedure I, but modified in the manner that after incorporation of the chemicals (herbicide and antidote) the containers with the covered seedbed were treated with an initial overhead irrigation equivalent to 0.6 cm rainfall, then subsequently sub-irrigated as required on greenhouse benches.
(§4) In other greenhouse tests, using Procedure II described above, the safening efficacy of Antidote Nos. 15 and 17-21 was evaluated against Herbicide No. 1 in corn in the presence of Giant foxtail (Setaria fabergi) and Velvetleaf (Abutilon theophrasti) as representative annual monocotyledonous and dicotyledonous weeds, respectively.
(§5) Test results are shown in Tables 23A and 23B wherein the indicated plant inhibition represents the average of duplicate replications, with observations being made thirteen (13) days after application of the chemicals. Giant foxtail and Velvetleaf are represented by the symbols "GFT" and "VL", respectively. The data in Table 23A show the test results using the antidotes at 2.24 kg/ha, whereas in Table 23B, the antidotal rate was reduced to 0.56 kg/ha.
(§6) The tests described in Example 23 were duplicated, but in this example a variety of co-herbicides were included to ascertain the efficacy of the antidotes against combinations of Herbicide No. 1 and Herbicides Nos. 4, 6, 7 and 12 as co-herbicides. Test results are shown in Table 24, wherein the antidote application rate was 2.24 kg/ha.

corn = tested on: corn
Experimental: as §1, §2, §3, §4, §5, §6

[2] = tested on: velvetleaf (Abutilon theophrasti)
Experimental: as §1, §2, §3, §4, §5, §6

[3] = Herb. No. 1 0.07 Kg/ha + Co-Herb. No. 4 1.12 Kg/ha + antidote 2.24 Kg/ha
[4] = Herb. No. 1 0.07 Kg/ha + Co-Herb. No. 6 0.14 Kg/ha + antidote 2.24 Kg/ha
[5] = Herb. No. 1 0.07 Kg/ha + Co-Herb. No. 7 0.28 Kg/ha + antidote 2.24 Kg/ha
[6] = Herb. No. 1 0.07 Kg/ha + Co-Herb. No. 12 0.28 Kg/ha + antidote 2.24 Kg/ha
[7] = Herb. No. 1 0.14 Kg/ha + Co-Herb. No. 4 1.12 Kg/ha + antidote 2.24 Kg/ha
[8] = Herb. No. 1 0.14 Kg/ha + Co-Herb. No. 6 0.14 Kg/ha + antidote 2.24 Kg/ha
[9] = Herb. No. 1 0.14 Kg/ha + Co-Herb. No. 7 0.28 Kg/ha + antidote 2.24 Kg/ha
[10] = Herb. No. 1 0.14 Kg/ha + Co-Herb. No. 12 0.28 Kg/ha + antidote 2.24 Kg/ha
[11] = Herb. No. 1 0.28 Kg/ha + Co-Herb. No. 4 1.12 Kg/ha + antidote 2.24 Kg/ha
[12] = Herb. No. 1 0.28 Kg/ha + Co-Herb. No. 6 0.14 Kg/ha + antidote 2.24 Kg/ha
[13] = Herb. No. 1 0.28 Kg/ha + Co-Herb. No. 7 0.28 Kg/ha + antidote 2.24 Kg/ha
[14] = Herb. No. 1 0.28 Kg/ha + Co-Herb. No. 12 0.28 Kg/ha + antidote 2.24 Kg/ha
[15] = Herb. No. 1 0.56 Kg/ha + Co-Herb. No. 4 1.12 Kg/ha + antidote 2.24 Kg/ha
[16] = Herb. No. 1 0.56 Kg/ha + Co-Herb. No. 6 0.14 Kg/ha + antidote 2.24 Kg/ha
[17] = Herb. No. 1 0.56 Kg/ha + Co-Herb. No. 7 0.28 Kg/ha + antidote 2.24 Kg/ha
[18] = Herb. No. 1 0.56 Kg/ha + Co-Herb. No. 12 0.28 Kg/ha + antidote 2.24 Kg/ha

CCSC(=O)COC(c1ccccc1)c1ccccc1 [compound 21]
90%: % Inhibition VL [2, 3] | % Inhibition VL [2, 6] | % Inhibition VL [2, 7] | % Inhibition VL [2, 8] | % Inhibition VL [2, 9] | % Inhibition VL [2, 15]
99%: % Inhibition GFT [1, 10] | % Inhibition GFT [1, 12] | % Inhibition GFT [1, 18]
85%: % Inhibition VL [2, 4]
95%: % Inhibition VL [2, 5] | % Inhibition VL [2, 10] | % Inhibition VL [2, 11] | % Inhibition VL [2, 12] | % Inhibition VL [2, 13]
60%: % Inhibition GFT [1, 7]
5%: % Inhibition Corn (corn; [3]) | % Inhibition Corn (corn; [7]) | % Inhibition Corn (corn; [8]) | % Inhibition Corn (corn; [10]) | % Inhibition Corn (corn; [12]) | % Inhibition Corn (corn; [13]) | % Inhibition Corn (corn; [15])
10%: % Inhibition Corn (corn; [14]) | % Inhibition Corn (corn; [16])
20%: % Inhibition Corn (corn; [18])
15%: % Inhibition Corn (corn; [17])
65%: % Inhibition GFT [1, 3] | % Inhibition GFT [1, 11]
0%: % Inhibition Corn (corn; [4]) | % Inhibition Corn (corn; [5]) | % Inhibition Corn (corn; [6]) | % Inhibition Corn (corn; [9]) | % Inhibition Corn (corn; [11])
70%: % Inhibition GFT [1, 15]
100%: % Inhibition GFT [1, 4] | % Inhibition GFT [1, 5] | % Inhibition GFT [1, 6] | % Inhibition GFT [1, 8] | % Inhibition GFT [1, 9] | % Inhibition GFT [1, 14] | % Inhibition GFT [1, 16] | % Inhibition GFT [1, 17]
98%: % Inhibition GFT [1, 13] | % Inhibition VL [2, 14] | % Inhibition VL [2, 16] | % Inhibition VL [2, 17] | % Inhibition VL [2, 18]

COC(=O)COC(c1ccccc1)c1ccccc1 [compound 20]
98%: % Inhibition GFT [1, 5] | % Inhibition GFT [1, 9] | % Inhibition VL [2, 12] | % Inhibition VL [2, 14] | % Inhibition VL [2, 18]
10%: % Inhibition Corn (corn; [15]) | % Inhibition Corn (corn; [18])
95%: % Inhibition VL [2, 4] | % Inhibition VL [2, 5] | % Inhibition VL [2, 10] | % Inhibition VL [2, 13] | % Inhibition VL [2, 15] | % Inhibition VL [2, 16] | % Inhibition VL [2, 17]
40%: % Inhibition GFT [1, 7]
99%: % Inhibition GFT [1, 6] | % Inhibition GFT [1, 8] | % Inhibition GFT [1, 17]
100%: % Inhibition GFT [1, 4] | % Inhibition GFT [1, 10] | % Inhibition GFT [1, 12] | % Inhibition GFT [1, 13] | % Inhibition GFT [1, 14] | % Inhibition GFT [1, 16] | % Inhibition GFT [1, 18]
90%: % Inhibition VL [2, 3] | % Inhibition VL [2, 6] | % Inhibition VL [2, 7] | % Inhibition VL [2, 8] | % Inhibition VL [2, 9] | % Inhibition VL [2, 11]
5%: % Inhibition Corn (corn; [8]) | % Inhibition Corn (corn; [10]) | % Inhibition Corn (corn; [12]) | % Inhibition Corn (corn; [14]) | % Inhibition Corn (corn; [17])
0%: % Inhibition Corn (corn; [3]) | % Inhibition Corn (corn; [4]) | % Inhibition Corn (corn; [5]) | % Inhibition Corn (corn; [6]) | % Inhibition Corn (corn; [7]) | % Inhibition Corn (corn; [9]) | % Inhibition Corn (corn; [11]) | % Inhibition Corn (corn; [13])
65%: % Inhibition GFT [1, 3] | % Inhibition GFT [1, 11] | % Inhibition GFT [1, 15]
20%: % Inhibition Corn (corn; [16])

O=C(O)COC(c1ccccc1)c1ccccc1 [compound 18]
90%: % Inhibition VL [2, 3] | % Inhibition VL [2, 4] | % Inhibition VL [2, 5] | % Inhibition VL [2, 15]
80%: % Inhibition VL [2, 6]
15%: % Inhibition Corn (corn; [18])
95%: % Inhibition VL [2, 7] | % Inhibition VL [2, 8] | % Inhibition VL [2, 9] | % Inhibition VL [2, 11] | % Inhibition VL [2, 12] | % Inhibition VL [2, 13] | % Inhibition VL [2, 14] | % Inhibition VL [2, 18]
70%: % Inhibition GFT [1, 11]
20%: % Inhibition Corn (corn; [16])
99%: % Inhibition GFT [1, 5] | % Inhibition GFT [1, 8] | % Inhibition GFT [1, 9] | % Inhibition GFT [1, 10] | % Inhibition GFT [1, 12] | % Inhibition GFT [1, 18] | % Inhibition VL [2, 10]
5%: % Inhibition Corn (corn; [3]) | % Inhibition Corn (corn; [7]) | % Inhibition Corn (corn; [11]) | % Inhibition Corn (corn; [12]) | % Inhibition Corn (corn; [13])
55%: % Inhibition GFT [1, 7]
10%: % Inhibition Corn (corn; [9]) | % Inhibition Corn (corn; [14]) | % Inhibition Corn (corn; [15]) | % Inhibition Corn (corn; [17])
100%: % Inhibition GFT [1, 4] | % Inhibition GFT [1, 6] | % Inhibition GFT [1, 13] | % Inhibition GFT [1, 14] | % Inhibition GFT [1, 16] | % Inhibition GFT [1, 17]
0%: % Inhibition Corn (corn; [4]) | % Inhibition Corn (corn; [5]) | % Inhibition Corn (corn; [6]) | % Inhibition Corn (corn; [8]) | % Inhibition Corn (corn; [10])
98%: % Inhibition VL [2, 16] | % Inhibition VL [2, 17]
65%: % Inhibition GFT [1, 3] | % Inhibition GFT [1, 15]

O=C(O)COC(c1ccccc1)c1ccccc1 [compound 19]
85%: % Inhibition VL [2, 6] | % Inhibition VL [2, 10]
99%: % Inhibition GFT [1, 5] | % Inhibition GFT [1, 6] | % Inhibition GFT [1, 9] | % Inhibition GFT [1, 10] | % Inhibition GFT [1, 12] | % Inhibition GFT [1, 13] | % Inhibition GFT [1, 16] | % Inhibition GFT [1, 17] | % Inhibition GFT [1, 18] | % Inhibition VL [2, 16] | % Inhibition VL [2, 18]
98%: % Inhibition VL [2, 17]
5%: % Inhibition Corn (corn; [11]) | % Inhibition Corn (corn; [12]) | % Inhibition Corn (corn; [13]) | % Inhibition Corn (corn; [14]) | % Inhibition Corn (corn; [15])
60%: % Inhibition GFT [1, 7]
10%: % Inhibition Corn (corn; [16]) | % Inhibition Corn (corn; [17])
45%: % Inhibition GFT [1, 11]
90%: % Inhibition VL [2, 3] | % Inhibition VL [2, 4] | % Inhibition VL [2, 5] | % Inhibition VL [2, 9] | % Inhibition VL [2, 15]
20%: % Inhibition Corn (corn; [18])
100%: % Inhibition GFT [1, 4] | % Inhibition GFT [1, 8] | % Inhibition GFT [1, 14]
95%: % Inhibition VL [2, 7] | % Inhibition VL [2, 8] | % Inhibition VL [2, 11] | % Inhibition VL [2, 12] | % Inhibition VL [2, 13] | % Inhibition VL [2, 14]
70%: % Inhibition GFT [1, 15]
40%: % Inhibition GFT [1, 3]
0%: % Inhibition Corn (corn; [3]) | % Inhibition Corn (corn; [4]) | % Inhibition Corn (corn; [5]) | % Inhibition Corn (corn; [6]) | % Inhibition Corn (corn; [7]) | % Inhibition Corn (corn; [8]) | % Inhibition Corn (corn; [9]) | % Inhibition Corn (corn; [10])
